This passage reports MIC50, MIC90 and MIC results from ChEMBL document CHEMBL1649495, “Sitafloxacin activity against Helicobacter pylori isolates, including those with gyrA mutations” (2009).

Common to all, as to format: functional
Experiment [1] has as its system Helicobacter pylori. In words: Antibacterial activity against Helicobacter pylori clinical isolates harboring gyrA Asp91 mutant gene by agar dilution method.
The test system of experiment [2] is Helicobacter pylori. In words: Antibacterial activity against Helicobacter pylori clinical isolates harboring mutation in gyrA gene by agar dilution method.
Experiment [3] has as its system Helicobacter pylori. Kind of experiment: Antibacterial activity against Helicobacter pylori clinical isolates harboring gyrA gene by agar dilution method.
For experiment [4], the system named is Helicobacter pylori. Kind of experiment: Antibacterial activity against Helicobacter pylori clinical isolates harboring gyrA Asn87 mutant gene by agar dilution method. A general note: In agar dilution the substance is mixed into plates at graded concentrations.

In brackets after ≈: the same amount, converted by molar mass.

For orientation: MIC50 means an inhibitory concentration at the 50% level, which refers to growth in some studies and to a panel of isolates in others. Usually MIC90 stands for the lowest concentration that inhibits either 90% of growth or 90% of the strains tested, depending on the study. A high value points to weaker potency. In general, MIC refers to the lowest concentration found to suppress growth. Low values mean greater potency, high ones weaker potency. In the case of `C[C@H]1COc2c(N3CCN(C)CC3)c(F)cc3c(=O)c(C(=O)O)cn1c23.C[C@H]1COc2c(N3CCN(C)CC3)c(F)cc3c(=O)c(C(=O)O)cn1c23.O` [LEVOFLOXACIN], the MIC50 came out at 4 µg/mL in the experiment on Helicobacter pylori [1], 0.25 µg/mL against Helicobacter pylori [3] and 8 µg/mL in the experiment on Helicobacter pylori [4]. Further, the MIC90 against Helicobacter pylori [1] was determined as 8 µg/mL; in the experiment on Helicobacter pylori [3], 0.25 µg/mL; with Helicobacter pylori [4], 16 µg/mL. The MIC against Helicobacter pylori [2] was 0.12 µg/mL.
For the compound `N[C@@H]1CN(c2c(F)cc3c(=O)c(C(=O)O)cn([C@@H]4C[C@@H]4F)c3c2Cl)CC12CC2` [SITAFLOXACIN ANHYDROUS], the figures for the MIC50 against Helicobacter pylori [1], with Helicobacter pylori [3] and in the experiment on Helicobacter pylori [4] were 0.12 µg/mL (≈ 0.293 µM), 0.03 µg/mL (≈ 0.0732 µM) and 0.25 µg/mL (≈ 0.61 µM), respectively. Also, the MIC90 was 0.25 µg/mL (≈ 0.61 µM) in the experiment on Helicobacter pylori [1], 0.03 µg/mL (≈ 0.0732 µM) in the experiment with Helicobacter pylori [3] and 0.5 µg/mL (≈ 1.22 µM) in the experiment with Helicobacter pylori [4]. This compound gave an MIC against Helicobacter pylori [2] of no more than 0.015 µg/mL.
On to `C[C@H]1NCc2cc(-c3ccc4c(=O)c(C(=O)O)cn(C5CC5)c4c3OC(F)F)ccc21` [GARENOXACIN], for which the results for the MIC50 in the experiment with Helicobacter pylori [1], in the experiment on Helicobacter pylori [3] and against Helicobacter pylori [4] were 0.5 µg/mL (≈ 1.17 µM), 0.03 µg/mL (≈ 0.0704 µM) and 0.5 µg/mL (≈ 1.17 µM), respectively. The MIC90 against Helicobacter pylori [1] worked out at 1 µg/mL (≈ 2.35 µM); in the experiment on Helicobacter pylori [3], 0.06 µg/mL (≈ 0.141 µM); in the experiment with Helicobacter pylori [4], 1 µg/mL (≈ 2.35 µM). In the experiment on Helicobacter pylori [2], this compound returned an MIC of no more than 0.015 µg/mL.
